Target: T1, human polymorphonuclear leukocyte elastase (human granulocyte elastase) (Homo sapiens, UniProt P08246)
T1 construct: Crude extract of human polymorphonuclear leukocytes (PMN) containing elastase activity; endogenous in cells; host or cells: human polymorphonuclear leukocytes (crude extract)
T1 sequence (P08246 30-267): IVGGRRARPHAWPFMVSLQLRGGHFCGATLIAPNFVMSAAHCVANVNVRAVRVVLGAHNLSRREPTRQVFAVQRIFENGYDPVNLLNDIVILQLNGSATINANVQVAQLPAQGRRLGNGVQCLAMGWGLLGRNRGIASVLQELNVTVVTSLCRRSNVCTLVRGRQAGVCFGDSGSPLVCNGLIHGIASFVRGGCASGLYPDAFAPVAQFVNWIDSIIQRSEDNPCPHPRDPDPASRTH
Assay: Enzyme assay for inhibition of human polymorphonuclear leukocyte elastase via hydrolysis of Boc-AAPAN or Boc-AAPVN
Format: biochemical
Settings: crude extract of human PMN; 0.2 mM Boc-AAPAN or Boc-AAPVN; 0.05M TES buffer pH 7.5; read-out: kobs /I, second order rate constant for inactivation of the enzyme
Procedure: Enzyme Assays for the Inhibition of Human Polymorphonuclear Leukocyte Elastase Via Hydrolysis of N-t-Boc-alanyl-alanyl-prolyl-alanine-p-nitroanilide (Boc-AAPAN) or N-t-Boc-alanyl-prolyl-valine-p-nitroanilide (Boc-AAPVN) Reagent
0.05M TES (N-tris[hydroxymethyl]methyl-2-amino-ethanesulfonic acid) Buffer, pH 7.5.
0.2 mM Boc-AAPAN or Boc-AAPVN.
To prepare substrate, the solid was first dissolved in 10.0 ml DMSO. Buffer at pH 7.5 was then added to a final volume of 100 ml.
Crude extract of human polymorphonuclear leukocytes (PMN) containing elastase activity.
Inhibitors (azetidinones) to be tested dissolved in DMSO just before use.
To 1.0 ml of 0.2 mM Boc-AAPAN in a cuvette, 0.01-0.1 ml of DMSO with or without inhibitor was added. After mixing, a measurement was taken at 410 mμ to detect any spontaneous hydrolysis due to presence of test compound. 0.05 Milliliters of PMN extract was then added and the ΔOD/min at 410 mμ was measured and recorded. Beckman model 35 spectrophotometer was used.
The elastase activity in the crude PMN extract may vary from one preparation to another. A control of each new batch is run, and the volume added in the assay procedure is adjusted according to activity.

Row | kinact/KI | SMILES
1 | 420000 M⁻¹ s⁻¹ | CCC[C@@H](NC(=O)N1C(=O)C(CC)(CC)[C@@H]1Oc1ccc(CP(C)(=O)O)cc1)c1ccc(C)cc1 [Example 6, (4S)-3,3-Diethyl-1-[(R)-α-n-propyl(4-methyl)-benzylaminocarbonyl]-4-[4-(methyl(hydroxyphosphinyl)methyl)phenoxy]-azetidin-2-one]
2 | 910000 M⁻¹ s⁻¹ | CCC[C@@H](NC(=O)N1C(=O)C(CC)(CC)[C@@H]1Oc1ccc(CP(=O)(O)CCC)cc1)c1ccc(C)cc1 [Example 8, (4S)-3,3-Diethyl-1-[(R)-α-n-propyl(4-methyl)-benzylaminocarbonyl]-4-[4-(n-propyl(hydroxyphosphinyl)methyl)-phenoxy]-azetidin-2-one]
3 | 740000 M⁻¹ s⁻¹ | C=CCP(=O)(O)Cc1ccc(O[C@@H]2N(C(=O)N[C@H](CCC)c3ccc(C)cc3)C(=O)C2(CC)CC)cc1 [Example 4, (4S)-3,3-Diethyl-1-[(R)-α-n-propyl(4-methyl)-benzylaminocarbonyl]-4-[4-(allyl(hydroxyphosphinyl)methyl)phenoxy]-azetidin-2-one]

Row | SMILES | kinact/KI
4 | C=CCP(=O)(Cc1ccc(O[C@@H]2N(C(=O)N[C@H](CCC)c3ccc(C)cc3)C(=O)C2(CC)CC)cc1)OCC (stereo partly drawn) [Example 3, (4S)-3,3-Diethyl-1-[(R)-α-n-propyl(4-methyl)-benzylaminocarbonyl]-4-[4-(allyl(ethoxyphosphinyl)methyl)phenoxy]-azetidin-2-one] | 1.3e+06 M⁻¹ s⁻¹
5 | CCC[C@@H](NC(=O)N1C(=O)C(CC)(CC)[C@@H]1Oc1ccc(CP(=O)(O)c2ccccc2)cc1)c1ccc(C)cc1 [Example 2] | 1.2e+06 M⁻¹ s⁻¹
